Data reported in patent publication US9468209B2, “Method for eradicating weeds with derivatives of 3-acetyl-5-sec-butyl-4-hydroxy-3-pyrrolin-2-one” (priority 2012, dated 2016).

Columns and labels:
Assay in all cases: Leaf piece damage test
Type in all cases: in vivo
Set-up in all cases: key: 4: The leaf completely dead; 3: Two third of the leaf withered; 2: One half of the leaf withered; 1: Only edge of the leaf withered; 0: Not damage at all
Conditions in all cases: 50 μg/mL, 4 days
Polygonum lapathifolium = test system: Polygonum lapathifolium
Procedure: (§1) Compounds 7, 14, 15, 16, 40, 45, 48 and 53 were dissolved individually in small amount of methanol, and diluted with distilled water to concentration of 50 μg/mL. Methanol water solution and pure water were used as control. A piece of 5 mm leaf was taken from the second leaf of weed sample and was treated with the solution three times. 5 pieces of the leaf were prepared for each treatment. The damage data were collected 4 days later. The measurement of damage level is described in the Table 9.
(§2) The measurement of the plant damage was calculated by the formula: Damage Index=Σ(damage level×number of plants)×100/4/number of plants in each treatment.

Cyperus difformis = test system: Cyperus difformis
Procedure: as §1, §2

Wild oats = test system: Wild oats
Procedure: as §1, §2

[1] = test system: Green foxtail (Setaria viridis)
Procedure: as §1, §2

Sonchus oleraceus = test system: Sonchus oleraceus
Procedure: as §1, §2

Veronica didyma = test system: Veronica didyma
Procedure: as §1, §2

Rumex dentatus = test system: Rumex dentatus
Procedure: as §1, §2

[2] = test system: Japanese false bindweed (Calystegia hederacea)
Procedure: as §1, §2

Japanese alopecurus = test system: Japanese alopecurus
Procedure: as §1, §2

Sonchus asper = test system: Sonchus asper
Procedure: as §1, §2

[3] = test system: Pigweed (Amaranthus spinosus)
Procedure: as §1, §2

Carpesium abrotanoides = test system: Carpesium abrotanoides
Procedure: as §1, §2

[4] = test system: Alligator weed (Alternanthera philoxeroides)
Procedure: as §1, §2

Lapsana apogonoides = test system: Lapsana apogonoides
Procedure: as §1, §2

Eupatorium adenophorum = test system: Eupatorium adenophorum
Procedure: as §1, §2

Galeopsis bifida = test system: Galeopsis bifida
Procedure: as §1, §2

Veronica percica = test system: Veronica percica
Procedure: as §1, §2

Abrtilon theophrasti = test system: Abrtilon theophrasti
Procedure: as §1, §2

Xanthium sibiricum = test system: Xanthium sibiricum
Procedure: as §1, §2

[5] = test system: Barbyardgrass Echinochloa crusgalli
Procedure: as §1, §2

Equal alopecurus = test system: Equal alopecurus
Procedure: as §1, §2

Oxalis corniculata = test system: Oxalis corniculata
Procedure: as §1, §2

| SMILES | Damage level (Polygonum lapathifolium) | Damage level (Cyperus difformis) | Damage level (Wild oats) | Damage level [1] | Damage level (Sonchus oleraceus) | Damage level (Veronica didyma) | Damage level (Rumex dentatus) | Damage level [2] | Damage level (Japanese alopecurus) | Damage level (Sonchus asper) | Damage level [3] | Damage level (Carpesium abrotanoides) | Damage level [4] | Damage level (Lapsana apogonoides) | Damage level (Eupatorium adenophorum) | Damage level (Galeopsis bifida) | Damage level (Veronica percica) | Damage level (Abrtilon theophrasti) | Damage level (Xanthium sibiricum) | Damage level [5] | also measured |
| --- | --- | --- | --- | --- | --- | --- | --- | --- | --- | --- | --- | --- | --- | --- | --- | --- | --- | --- | --- | --- | --- |
| CCCCC1NC(=O)C(C(C)=O)=C1O (stereo not shown) [Compound 14] | 2 | 3 | 3 | 3 | 3 | 3 | 2 | 3 | 3 | 3 | 2 | 2 | 3 | 3 | 3 | 2 | 2 | 2 | 2 | 4 | Damage level (Equal alopecurus): 3; Damage level (Oxalis corniculata): 4 |
| CCCCCC1NC(=O)C(C(C)=O)=C1O (stereo not shown) [Compound 15] | 2 | 3 | 3 | 4 | 3 | 2 | 2 | 3 | 3 | 3 | 2 | 2 | 2 | 2 | 4 | 2 | 2 | 2 | 2 | 4 | Damage level (Equal alopecurus): 3; Damage level (Oxalis corniculata): 3 |
| CCCCCCC1NC(=O)C(C(C)=O)=C1O (stereo not shown) [Compound 16] | 2 | 3 | 3 | 3 | 3 | 2 | 2 | 4 | 3 | 3 | 2 | 2 | 3 | 3 | 4 | 2 | 2 | 3 | 2 | 4 | Damage level (Equal alopecurus): 3; Damage level (Oxalis corniculata): 4 |
| CCCC(Cl)C1NC(=O)C(C(C)=O)=C1O (stereo not shown) [Compound 40] | 2 | 3 | 3 | 3 | 3 | 2 | 2 | 3 | 3 | 3 | 2 | 3 | 3 | 3 | 4 | 3 | 3 | 3 | 2 | 4 | Damage level (Equal alopecurus): 3; Damage level (Oxalis corniculata): 4 |
| CCC(C)C1NC(=O)C(C(=O)CCF)=C1O (stereo not shown) [Compound 44] | 2 | 3 | 3 | 4 | 3 | 3 | 3 | 4 | 4 | 3 | 3 | 3 | 4 | 3 | 4 | 3 | 3 | 2 | 2 | 4 | Damage level (Equal alopecurus): 3; Damage level (Oxalis corniculata): 4 |
| CCC(C)C1NC(=O)C(C(=O)CCc2cc(Cl)cc(Cl)c2)=C1O (stereo not shown) [Compound 48] | 2 | 4 | 3 | 4 | 4 | 3 | 3 | 4 | 4 | 4 | 3 | 4 | 4 | 4 | 4 | 2 | 3 | 3 | 3 | 4 | Damage level (Equal alopecurus): 4; Damage level (Oxalis corniculata): 4 |
| CCCC(C#N)C1NC(=O)C(=C(C)O)C1=O (stereo not shown) [Compound 53] | 3 | 3 | 3 | 3 | 4 | 3 | 2 | 4 | 3 | 3 | 3 | 2 | 3 | 3 | 4 | 3 | 3 | 3 | 3 | 4 | Damage level (Equal alopecurus): 4; Damage level (Oxalis corniculata): 4 |
